# Assay results reported in the supplement of paper PMC10331698.
# ± gives the standard deviation of the averaged measurements.
# Key:
# Experiment in all cases: level (log10 ratio to DMSO vehicle control); higher = higher biomarker level / cell amount than vehicle control
# Conditions in all cases: in DMSO
# Hexafluoroamylene glycol = compound: OCC(F)(F)C(F)(F)C(F)(F)CO [Hexafluoroamylene glycol]
# Protocol: (§1)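 BioMAP Diversity Plus panel of 12 human primary cell co-culture systems (3C, 4H, LPS, SAg, BT, BF4T, BE3C, CASM3C, HDF3CGF, KF3CT, MyoF, Mphg). Compounds were added 1 h before stimulation and left for 24 h (MyoF 48 h; BT 72 h for soluble read-outs or 6 d for IgG). Biomarkers were read by ELISA, cytotoxicity by SRB, PBMC viability and proliferation by Alamar Blue. Each well value was divided by the mean of 8 DMSO control wells on the same plate and log10 transformed; duplicate blinded samples were tested at 4 concentrations.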
# [1] = compound: O=S(=O)(Cl)C(F)(F)C(F)(F)C(F)(F)C(F)(F)C(F)(F)C(F)(F)C(F)(F)C(F)(F)F [Perfluoro-1-octanesulfonyl chloride]
# Protocol: as §1
# [2] = compound: O=S(=O)(F)C(F)(F)C(F)(F)C(F)(F)C(F)(F)C(F)(F)C(F)(F)C(F)(F)C(F)(F)F [Perfluorooctanesulfonyl fluoride]
# Protocol: as §1
# [3] = compound: O=S(=O)(O)C(F)(F)C(F)(F)C(F)(F)C(F)(F)C(F)(F)C(F)(F)C(F)(F)C(F)(F)C(F)(F)C(F)(F)F [Sodium perfluorodecanesulfonate]
# Protocol: as §1
# [4] = compound: FC(F)(F)C(F)(F)CNCC(F)(F)C(F)(F)F [Bis(1H,1H-perfluoropropyl)amine]
# Protocol: as §1
# [5] = compound: O=C(O)C=CC(F)(C(F)(F)F)C(F)(F)F [3-(Perfluoroisopropyl)-2-propenoic acid]
# Protocol: as §1
Test System,level (log10) (Hexafluoroamylene glycol; 6700 nM),level (log10) (Hexafluoroamylene glycol; 20000 nM),level (log10) (Hexafluoroamylene glycol; 60000 nM),level (log10) ([1]; 6700 nM),level (log10) ([1]; 20000 nM),level (log10) ([1]; 60000 nM),level (log10) ([2]; 6700 nM),level (log10) ([2]; 20000 nM),level (log10) ([2]; 60000 nM),level (log10) ([3]; 1500 nM),level (log10) ([3]; 4400 nM),level (log10) ([3]; 13000 nM),level (log10) ([3]; 40000 nM),level (log10) ([4]; 6700 nM),level (log10) ([4]; 20000 nM),level (log10) ([4]; 60000 nM),level (log10) ([5]; 6700 nM),level (log10) ([5]; 20000 nM),level (log10) ([5]; 60000 nM)
CASM3C:IL-6,-0.0015 ± 0.015,-0.0155 ± 0.016,0.028 ± 0.028,-0.009 ± 0.03,-0.024 ± 0.02,0.015 ± 0.044,-0.014 ± 0.02,-0.008 ± 0.0071,-0.0125 ± 0.061,-0.013 ± 0.018,-0.053 ± 0.05,0.055 ± 0.0099,0.108 ± 0.018,-0.0335 ± 0.047,-0.035 ± 0.02,0.0065 ± 0.023,-0.035 ± 0.011,-0.0525 ± 0.00071,0.001 ± 0.092
CASM3C:LDLR,-0.007 ± 0.013,-0.0095 ± 0.019,0.024 ± 0.037,-0.0105 ± 0.005,-0.011 ± 0.017,0.0095 ± 0.037,0.0035 ± 0.0021,0.0015 ± 0.012,0.0055 ± 0.023,0.0155 ± 0.028,-0.015,-0.0425 ± 0.018,-0.0055 ± 0.035,-0.005 ± 0.0099,-0.0065 ± 0.0021,-0.001 ± 0.025,-0.006 ± 0.017,-0.0045 ± 0.00071,0.008 ± 0.017
CASM3C:M-CSF,-0.0075 ± 0.013,-0.0195 ± 0.028,0.0135 ± 0.044,0.008 ± 0.014,0.0095 ± 0.018,0.0425 ± 0.005,0.0005 ± 0.013,-0.0185 ± 0.028,0.0085 ± 0.021,0.0465 ± 0.0064,0.0285 ± 0.0035,0.03 ± 0.014,0.14 ± 0.079,0.006 ± 0.016,-0.005 ± 0.016,0.0115 ± 0.028,-0.0195 ± 0.0078,-0.0175 ± 0.011,0.009 ± 0.034
CASM3C:PAI-I,-0.0035 ± 0.015,0.017 ± 0.031,0.006 ± 0.0085,-0.003 ± 0.0028,-0.0095 ± 0.00071,0.0005 ± 0.011,0.005 ± 0.0071,-0.005 ± 0.0028,0.0045 ± 0.0035,-0.001 ± 0.0028,-0.0165 ± 0.0064,0.009 ± 0.0057,-0.0055 ± 0.021,-0.0075 ± 0.0078,-0.009 ± 0.0042,0.005 ± 0.025,0.006 ± 0.0028,0 ± 0.0057,0.012 ± 0.0057
CASM3C:SRB,-0.0005 ± 0.013,-0.0085 ± 0.00071,-0.0045 ± 0.0078,0.0075 ± 0.00071,0.0045 ± 0.0078,0.014 ± 0.0042,0.002 ± 0.0014,-0.006 ± 0.0071,-0.0015 ± 0.0021,-0.0035 ± 0.011,-0.005 ± 0.0085,0 ± 0.0028,-0.007 ± 0.0085,0.0065 ± 0.005,-0.001 ± 0.0028,0.008,0.006 ± 0.0042,-0.011 ± 0.0042,-0.003 ± 0.0028
CASM3C:Serum Amyloid A,0.016 ± 0.014,-0.0055 ± 0.069,0.002 ± 0.0014,-0.008 ± 0.011,-0.0165 ± 0.005,0.016 ± 0.025,0.0225 ± 0.0092,0.0245 ± 0.0078,0.0185 ± 0.011,-0.0545 ± 0.022,-0.0135 ± 0.011,0.0365 ± 0.036,0.182 ± 0.028,0.0025 ± 0.019,-0.007 ± 0.0057,0.0065 ± 0.032,0.0085 ± 0.005,-0.023 ± 0.017,0.026 ± 0.045
HDF3CGF:CCL2/MCP-1,-0.003 ± 0.0071,-0.004 ± 0.0057,0.007 ± 0.0071,-0.026 ± 0.038,-0.0505 ± 0.021,-0.0235 ± 0.028,-0.0035 ± 0.028,0.007 ± 0.023,-0.007 ± 0.072,-0.0105 ± 0.05,-0.018 ± 0.035,0.0415 ± 0.025,0.112 ± 0.0099,-0.032 ± 0.023,-0.021 ± 0.011,0.014 ± 0.031,-0.006 ± 0.018,0.006 ± 0.0085,0.017 ± 0.017
HDF3CGF:CD54/ICAM-1,-0.0065 ± 0.016,0.0015 ± 0.012,0.009,0.039 ± 0.023,0.034 ± 0.051,0.0005 ± 0.03,-0.013 ± 0.018,-0.011 ± 0.0014,-0.006 ± 0.013,-0.0145 ± 0.021,-0.031 ± 0.016,-0.037 ± 0.016,-0.063 ± 0.0057,0.026 ± 0.018,0.033 ± 0.0085,0.0405 ± 0.018,-0.0105 ± 0.005,-0.0055 ± 0.015,-0.024 ± 0.016
HDF3CGF:CD106/VCAM-1,0.042 ± 0.083,0.0495 ± 0.08,0.041 ± 0.055,-0.051 ± 0.04,-0.0065 ± 0.0064,-0.042 ± 0.0085,-0.011 ± 0.02,-0.071 ± 0.05,-0.083 ± 0.048,-0.104 ± 0.06,-0.164 ± 0.042,-0.0895 ± 0.049,-0.0215 ± 0.0092,0.017 ± 0.017,0.0115 ± 0.013,0.009 ± 0.0085,-0.0265 ± 0.015,-0.019 ± 0.02,-0.025 ± 0.035
HDF3CGF:CXCL10/IP-10,-0.009,-0.0135 ± 0.029,-0.028 ± 0.051,-0.0115 ± 0.0021,-0.046 ± 0.021,-0.0365 ± 0.018,-0.0005 ± 0.0021,-0.015 ± 0.011,-0.012 ± 0.014,-0.001 ± 0.027,-0.065 ± 0.0042,-0.025 ± 0.02,0.012,0.011 ± 0.011,-0.001 ± 0.0042,0.0265 ± 0.025,-0.007 ± 0.034,0.0025 ± 0.035,-0.001 ± 0.027
HDF3CGF:Collagen I,-0.005 ± 0.047,0.005 ± 0.09,0.0485 ± 0.12,0.001 ± 0.0057,-0.01 ± 0.0071,0.0135 ± 0.066,-0.0055 ± 0.057,0.015 ± 0.014,0.041 ± 0.027,-0.0095 ± 0.012,-0.01,0.067 ± 0.011,0.0845 ± 0.042,-0.0295 ± 0.015,-0.015 ± 0.017,0.0085 ± 0.056,-0.0205 ± 0.043,-0.0065 ± 0.023,0.0475 ± 0.035
HDF3CGF:Collagen III,0.009 ± 0.051,0.0115 ± 0.064,0.0515 ± 0.026,0.0055 ± 0.021,0.0365 ± 0.015,-0.008 ± 0.062,0.055 ± 0.016,0.039 ± 0.025,-0.03 ± 0.055,-0.031 ± 0.042,-0.074 ± 0.025,0.054 ± 0.0014,0.0205 ± 0.052,-0.002 ± 0.018,-0.002 ± 0.0042,0.0325 ± 0.036,-0.0125 ± 0.00071,0.009 ± 0.0014,0.033 ± 0.038
HDF3CGF:EGFR,-0.028 ± 0.02,-0.0305 ± 0.04,-0.0035 ± 0.005,-0.082 ± 0.045,-0.0785 ± 0.015,0.031 ± 0.035,-0.0255 ± 0.067,-0.089 ± 0.17,-0.0715 ± 0.19,-0.009 ± 0.067,-0.0295 ± 0.0092,-0.001 ± 0.0014,0.079 ± 0.0099,-0.0205 ± 0.06,-0.0615 ± 0.14,0.034 ± 0.025,-0.0025 ± 0.005,0.0015 ± 0.005,0.0265 ± 0.025
HDF3CGF:M-CSF,-0.014 ± 0.02,-0.0235 ± 0.066,-0.0495 ± 0.077,-0.0065 ± 0.016,0.0245 ± 0.021,0.0195 ± 0.011,0.0175 ± 0.005,0.0015 ± 0.0078,-0.013 ± 0.058,0.0325 ± 0.0078,0.009 ± 0.018,0.037 ± 0.035,0.0405 ± 0.0035,-0.0125 ± 0.025,-0.018 ± 0.031,-0.029 ± 0.069,-0.0005 ± 0.0021,0.001 ± 0.0028,0 ± 0.0057
